These results are taken from patent publication US10092588B2, “Foamable compositions, breakable foams and their uses” (Foamix Pharmaceuticals Ltd., priority 2009, dated 2018).

The structures appear in SMILES notation.

The data set in a line: Solubility of mometasone furoate in foam composition, visual inspection. As to conditions: in the hydro-alcoholic foam formulation. The data set is classed as physicochemical.

As for `C[C@@H]1C[C@H]2[C@@H]3CCC4=CC(=O)C=C[C@]4(C)[C@@]3(Cl)[C@@H](O)C[C@]2(C)[C@@]1(OC(=O)c1ccco1)C(=O)CCl` [Mometasone furoate], the “Solubility of Mometasone Furoate” value is given as “soluble”.
